According to PubChem BioAssay AID2060491 (Molecular Pharmacology Branch, DTP, NCI, 2025):
Several values for one entry are separate records, joined by “and”; a condition that tells them apart may be missing. Equal entries are not always repeated.

System: 857933-349-R-J2-PDC complex spheroids, viability
Test: Anticancer human tumor 857933-349-R-J2-PDC patient-derived colon adenocarcinoma cell line growth inhibition [GQUAD]
Details: for viability, T/C: stronger effect = lower value
Outline: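 Multi-cell-type spheroids of tumor cells with HUVEC and mesenchymal stem cells, treated with drug combinations. Concentrations descend in half-log steps from near clinical Cmax, or from 10 microM where Cmax is unknown; viability read-out.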
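Note: spheroids exposed to compounds for one week before readout.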
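Throughout, for viability, T/C: percent viability relative to vehicle DMSO wells taken as 100%.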

COc1cc(C2c3cc4c(cc3C(OC3OC5COC(C)OC5C(O)C3O)C3COC(=O)C23)OCO4)cc(OC)c1O (stereo not drawn) + CN(C)c1ccc(Nc2c3ccc(NC(=O)CCN4CCCC4)cc3nc3cc(NC(=O)CCN4CCCC4)ccc23)cc1
IC50 (curve of first compound, second compound 0.0316 µM): 6.11 µM | IC50 (curve of first compound, second compound 0.1 µM): 6.68 µM | IC50 (curve of first compound, second compound 0.316 µM): 5.7 µM | IC50 (curve of first compound, second compound 1 µM): 5.97 µM | IC50 (curve of first compound, second compound 3.16 µM): 5.78 µM | IC50 (curve of first compound, second compound 10 µM): 5.77 µM | viability, T/C (second compound 0.0316 µM, first compound 0.0316 µM): 98.2% | viability, T/C (second compound 0.0316 µM, first compound 0.1 µM): 95.4% | viability, T/C (second compound 0.0316 µM, first compound 0.316 µM): 80.3% | viability, T/C (second compound 0.0316 µM, first compound 1 µM): 79.3% | viability, T/C (second compound 0.0316 µM, first compound 3.16 µM): 58.8% | viability, T/C (second compound 0.0316 µM, first compound 10 µM): 42.1% | viability, T/C (second compound 0.1 µM, first compound 0.0316 µM): 96.3% | viability, T/C (second compound 0.1 µM, first compound 0.1 µM): 102% | viability, T/C (second compound 0.1 µM, first compound 0.316 µM): 84.3% | viability, T/C (second compound 0.1 µM, first compound 1 µM): 76.3% | viability, T/C (second compound 0.1 µM, first compound 3.16 µM): 59.6% | viability, T/C (second compound 0.1 µM, first compound 10 µM): 44.8% | viability, T/C (second compound 0.316 µM, first compound 0.0316 µM): 102% | viability, T/C (second compound 0.316 µM, first compound 0.1 µM): 95.8% | viability, T/C (second compound 0.316 µM, first compound 0.316 µM): 79.1% | viability, T/C (second compound 0.316 µM, first compound 1 µM): 70.2% | viability, T/C (second compound 0.316 µM, first compound 3.16 µM): 60.2% | viability, T/C (second compound 0.316 µM, first compound 10 µM): 41.8% | viability, T/C (second compound 1 µM, first compound 0.0316 µM): 101% | viability, T/C (second compound 1 µM, first compound 0.1 µM): 89.6% | viability, T/C (second compound 1 µM, first compound 0.316 µM): 83.3% | viability, T/C (second compound 1 µM, first compound 1 µM): 68.4% | viability, T/C (second compound 1 µM, first compound 3.16 µM): 61.6% | viability, T/C (second compound 1 µM, first compound 10 µM): 41.6% | viability, T/C (second compound 3.16 µM, first compound 0.0316 µM): 90.8% | viability, T/C (second compound 3.16 µM, first compound 0.1 µM): 81.2% | viability, T/C (second compound 3.16 µM, first compound 0.316 µM): 84.6% | viability, T/C (second compound 3.16 µM, first compound 1 µM): 71.8% | viability, T/C (second compound 3.16 µM, first compound 3.16 µM): 60.9% | viability, T/C (second compound 3.16 µM, first compound 10 µM): 40.3% | viability, T/C (second compound 10 µM, first compound 0.0316 µM): 74.4% | viability, T/C (second compound 10 µM, first compound 0.1 µM): 76.9% | viability, T/C (second compound 10 µM, first compound 0.316 µM): 71% | viability, T/C (second compound 10 µM, first compound 1 µM): 67% | viability, T/C (second compound 10 µM, first compound 3.16 µM): 58.2% | viability, T/C (second compound 10 µM, first compound 10 µM): 42.7%

C=CC(=O)N1CCN(c2nc(=O)n(-c3c(C)ccnc3C(C)C)c3nc(-c4c(O)cccc4F)c(F)cc23)C(C)C1 (stereo not drawn)
viability, T/C (compound 0.0316 µM): 106% and 112% and 111% | viability, T/C (compound 0.1 µM): 94.1% and 102% and 90.6% | viability, T/C (compound 0.316 µM): 100% and 107% and 103% | viability, T/C (compound 1 µM): 102% and 110% and 106% | viability, T/C (compound 3.16 µM): 107% (2×) and 108% | viability, T/C (compound 10 µM): 90.5% and 111% and 101% | IC50 (curve of compound): > 10 µM

CCc1c2c(nc3ccc(O)cc13)-c1cc3c(c(=O)n1C2)COC(=O)[C@]3(O)CC
viability, T/C (compound 0.000999 µM): 85.5% and 93.5% and 77.5% | viability, T/C (compound 0.00316 µM): 48.9% and 84.5% and 50.1% | viability, T/C (compound 0.00999 µM): 50% and 57.4% and 48.4% | viability, T/C (compound 0.0316 µM): 28% and 35.3% and 21.5% | viability, T/C (compound 0.0999 µM): 15.3% and 20.7% and 13% | viability, T/C (compound 0.316 µM): 11.9% and 6.62% and 10.2% | IC50 (curve of compound): 0.00562 µM and 0.016 µM and 0.00484 µM

CC(=O)O[C@H]1C(=O)[C@@]2(C)[C@H]([C@H](OC(=O)c3ccccc3)[C@]3(O)C[C@H](OC(=O)[C@H](O)[C@@H](NC(=O)c4ccccc4)c4ccccc4)C(C)=C1C3(C)C)[C@]1(OC(C)=O)CO[C@@H]1C[C@@H]2O
viability, T/C (compound 0.0316 µM): 52.5% and 76.2% and 43.1% | viability, T/C (compound 0.1 µM): 16.1% (2×) and 36.9% | viability, T/C (compound 0.316 µM): 11.9% and 21.4% and 7.97% | viability, T/C (compound 1 µM): 13.3% and 23.7% and 9.54% | viability, T/C (compound 3.16 µM): 12% and 23.8% and 9% | viability, T/C (compound 10 µM): 13.6% and 25.8% and 10.8% | IC50 (curve of compound): 0.0342 µM and 0.0682 µM and < 0.0316 µM
